#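 Following 48 hours of exposure in 96-well plates, responses at five concentrations were used to interpolate endpoints linearly. Abbreviation: GI50, concentration required for 50% inhibition of growth.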 The source made the active and inactive calls. Cut-off read from the data, not from the text of the source: active = GI50 up to about 1.1 µM and inactive = higher.
# Columns and labels:
# Assay in all cases: inhibition of tumour cell growth, NCI panel, 48 h
# SF-295 = test system: SF-295
# COLO 205 = test system: COLO 205
# SK-MEL-2 = test system: SK-MEL-2
# SR = test system: SR
# MDA-MB-231 = test system: MDA-MB-231
# T47D = test system: T47D
# SW-620 = test system: SW-620
# NCI-H226 = test system: NCI-H226
# SK-MEL-5 = test system: SK-MEL-5
# HCT-116 = test system: HCT-116
# SN12C = test system: SN12C
# NCI-H460 = test system: NCI-H460
# K562 = test system: K562
# A549 = test system: A549
# OVCAR-8 = test system: OVCAR-8
# SK-OV-3 = test system: SK-OV-3
# A498 = test system: A498
# HOP-92 = test system: HOP-92
# ACHN = test system: ACHN
# LXFL 529 = test system: LXFL 529
SMILES,GI50 (SF-295),GI50 (COLO 205),GI50 (SK-MEL-2),GI50 (SR),GI50 (MDA-MB-231),GI50 (T47D),GI50 (SW-620),GI50 (NCI-H226),GI50 (SK-MEL-5),GI50 (HCT-116),GI50 (SN12C),GI50 (NCI-H460),GI50 (K562),GI50 (A549),GI50 (OVCAR-8),GI50 (SK-OV-3),GI50 (A498),GI50 (HOP-92),GI50 (ACHN),GI50 (LXFL 529)
CCN(CC)c1ccc(/C=c2\nc(-c3ccccc3)n3c2nc2ccccc23)cc1,4.58 µM (inactive),5.14 µM (inactive),15.4 µM (inactive),1.68 µM (inactive),14.8 µM (inactive),0.0256 µM (active),4.7 µM (inactive),14.5 µM (inactive),3.64 µM (inactive),3.64 µM (inactive),16.8 µM (inactive),1.98 µM (inactive),3.77 µM (inactive),6.21 µM (inactive),9.79 µM (inactive),24.4 µM (inactive),64.4 µM (inactive),68.7 µM (inactive),15 µM (inactive),–
CCO/C([O-])=C(\C(=O)c1ccc([N+](=O)[O-])cc1)[n+]1c(C)n(C)c2ccccc21,> 100 µM (inactive),> 100 µM (inactive),> 100 µM (inactive),–,–,–,> 100 µM (inactive),> 100 µM (inactive),> 100 µM (inactive),> 100 µM (inactive),–,> 100 µM (inactive),> 100 µM (inactive),> 100 µM (inactive),> 100 µM (inactive),> 100 µM (inactive),> 100 µM (inactive),–,–,> 100 µM (inactive)
O=C(O)C1=CN(c2ccncc2)C(c2ccco2)=CC1c1ccccc1[N+](=O)[O-] (configuration not stated),12.8 µM (inactive),16.6 µM (inactive),15.7 µM (inactive),1.94 µM (inactive),14.6 µM (inactive),10.6 µM (inactive),10.2 µM (inactive),4.72 µM (inactive),6.65 µM (inactive),1.96 µM (inactive),13.6 µM (inactive),14.6 µM (inactive),2.58 µM (inactive),15.6 µM (inactive),17.3 µM (inactive),16.3 µM (inactive),13 µM (inactive),11.9 µM (inactive),2.1 µM (inactive),–
CN(C)C(=S)/N=c1\ss/c(=N\c2ccccc2)n1-c1ccccc1,28.6 µM (inactive),–,29.5 µM (inactive),–,–,–,25 µM (inactive),10.7 µM (inactive),–,–,49.5 µM (inactive),–,11.2 µM (inactive),25.6 µM (inactive),19.2 µM (inactive),40.6 µM (inactive),34 µM (inactive),12.5 µM (inactive),25.2 µM (inactive),0.0542 µM (active)
O=C(NC1C2CC3CC(C2)CC1C3)/C(Cl)=C1/Sc2ccccc2NC1=O (configuration not stated),> 100 µM (inactive),> 100 µM (inactive),–,44.5 µM (inactive),–,–,> 100 µM (inactive),> 100 µM (inactive),> 100 µM (inactive),> 83.6 µM (inactive),> 100 µM (inactive),> 89.9 µM (inactive),29.6 µM (inactive),> 100 µM (inactive),> 100 µM (inactive),–,> 100 µM (inactive),> 76.4 µM (inactive),> 95.9 µM (inactive),42.5 µM (inactive)
OC1OCC(COc2cc(Cl)c(Cl)cc2Cl)OC1O (configuration not stated),45.8 µM (inactive),52.1 µM (inactive),–,–,–,–,19.1 µM (inactive),41.5 µM (inactive),39.5 µM (inactive),18.9 µM (inactive),38.2 µM (inactive),44.5 µM (inactive),33.6 µM (inactive),55 µM (inactive),36.8 µM (inactive),88.1 µM (inactive),44.5 µM (inactive),56.1 µM (inactive),25.3 µM (inactive),46.8 µM (inactive)
CC(OCc1ccccc1)C(NC(=O)C1CSSCC(NC(=O)C(Cc2ccccc2)NC(=O)OCc2ccccc2)C(=O)NC(Cc2ccccc2)C(=O)NC(Cc2cn(C=O)c3ccccc23)C(=O)NC(CCCCNC(=O)OCc2ccccc2)C(=O)NC(C(C)OCc2ccccc2)C(=O)N1)C(N)=O (configuration not stated),> 85.7 µM (inactive),3.03 µM (inactive),13.1 µM (inactive),34 µM (inactive),12.6 µM (inactive),13.3 µM (inactive),13.4 µM (inactive),> 75 µM (inactive),24.5 µM (inactive),17.7 µM (inactive),> 100 µM (inactive),22.5 µM (inactive),16.4 µM (inactive),> 79.3 µM (inactive),75.2 µM (inactive),> 35.2 µM (inactive),27.3 µM (inactive),38.3 µM (inactive),> 59.6 µM (inactive),–
COc1ccc(N2C(=O)C3CC(c4ccc(Br)cc4)c4c([nH]c5ccccc45)C3C2=O)cc1 (configuration not stated),10.8 µM (inactive),9.02 µM (inactive),60.7 µM (inactive),–,–,–,5.81 µM (inactive),18.6 µM (inactive),16.5 µM (inactive),6.4 µM (inactive),3.93 µM (inactive),4.92 µM (inactive),5.37 µM (inactive),2.71 µM (inactive),2.13 µM (inactive),–,9.59 µM (inactive),12.3 µM (inactive),4.51 µM (inactive),4.07 µM (inactive)

# — ChEMBL document CHEMBL1201862, “PubChem BioAssay data set” (2004)
